According to US8945641B2, “Use of gum arabic for improving the growth and survival of bifidobacteria” (Compagnie Gervais Danone, priority 2006, dated 2015):

Test system: Bifidobacterium animalis ssp lactis I-2494
Assay: Growth and survival of bifidobacteria in a drinking yogurt with yogurt ferments, acacia gum and/or cysteine, storage at 10° C.
Type: cell-based
Conditions: acacia gum 0.8%
Text: A drinking yogurt (2.8% of proteins) is manufactured by reconstitution of milk powder, and supplemented with 0.8% (by weight) of acacia gum, as described in Example 1 above. This type of product is chosen for the trials since it is the one that poses the biggest problems in terms of maintaining the population of bifidobacteria during storage. The reconstituted milk, supplemented with acacia gum, is heat treated as described in Example 1 above, and homogenized (150-200 bar).
After cooling to 38-40° C., Streptococcus thermophilus and Lactobacillus delbrueckii ssp. Bulgaricus are added in an amount of 5×10^6 CFU/ml of Streptococcus thermophilus, 5×10^6 CFU/ml of Lactobacillus bulgaricus. Bifidobacterium animalis ssp lactis I-2494 is added in the form of a ferment for direct inoculation, such as those described in application FR 0606421 supplemented with cysteine or not. The supplemented ferment used corresponds to the addition of 1.92×10^7 CFU/ml of Bifidobacterium animalis and 6.9 mg/l of cysteine.
After inoculation, the fermentation is carried out at 38° C., and monitored using the CINAC® system (YSEBAERT) until the curd settling pH is obtained (4.3<pH<4.4).
The curd settling is obtained by drawing off and cooling between 10-20° C., and then stirring.
The product is then packaged in pots and then placed in a cold tunnel (4° C.).
The populations are then counted at 2 h of storage at 15° C., and then 2, 8 14, 28 and 37 days of storage at 10° C.
The same experiment was repeated with a product containing 2.7% of proteins, containing 0.8% of acacia gum, and inoculated with a ferment supplemented with cysteine, corresponding to the addition of 1.90×10^7 CFU/ml of bifidobacteria animalis and 7 mg/l of cysteine.

N[C@@H](CS)C(=O)O [Control Cysteine, cysteine]
Number of Bifidus at 2 h of storage (2 h of storage at 15° C., drinking yogurt 2.8% proteins, cysteine 6.9 mg/l where present): 2.1E+8 CFU/g | Number of Bifidus at D +2 (D+2, repeat, product 2.7% proteins, cysteine 7 mg/l where present): 1.05E+08 CFU/g | Number of Bifidus at D +2 (D+2 at 10° C., 2.8% proteins, cysteine 6.9 mg/l where present): 1.2E+8 CFU/g | Number of Bifidus at D +8 (D+8, repeat, 2.7% proteins, cysteine 7 mg/l where present): 9.00E+07 CFU/g | Number of Bifidus at D +8 (D+8 at 10° C., 2.8% proteins, cysteine 6.9 mg/l where present): 1.8E+8 CFU/g | Number of Bifidus at D +14 (D+14, repeat, 2.7% proteins, cysteine 7 mg/l where present): 7.00E+07 CFU/g | Number of Bifidus at D +14 (D+14 at 10° C., 2.8% proteins, cysteine 6.9 mg/l where present): 1.4E+8 CFU/g | Number of Bifidus at D +21 (D+21, repeat, 2.7% proteins, cysteine 7 mg/l where present): 4.00E+07 CFU/g | Number of Bifidus at D +28 (D+28, repeat, 2.7% proteins, cysteine 7 mg/l where present): 2.00E+07 CFU/g | Number of Bifidus at D +28 (D+28 at 10° C., 2.8% proteins, cysteine 6.9 mg/l where present): 8.8E+7 CFU/g | Number of Bifidus at D +35 (D+35, repeat, 2.7% proteins, cysteine 7 mg/l where present): 6.00E+06 CFU/g | Number of Bifidus at D +37 (D+37 at 10° C., 2.8% proteins, cysteine 6.9 mg/l where present): 7.8E+7 CFU/g | Number of Bifidus at D +52 (D+52, repeat, 2.7% proteins, cysteine 7 mg/l where present): 3.00E+06 CFU/g
